The values below come from paper PMC9692753, “Pentapeptide-Zinc Chelate from Sweet Almond Expeller Amandin Hydrolysates: Structural and Physicochemical Characteristics, Stability and Zinc Transport Ability In Vitro” (Molecules, 2022).

Marks after values point to notes of the source that are not given here. Where no end group is shown, it is not given here.

A short description of data set [1]: Zinc-chelating ability assay (PAR colorimetric method). Conditions: sample in 0.1 mol/L HEPES-KOH buffer, DTT 8 mmol/L, ZnSO4 250 μmol/L, 37 °C 10 min, absorbance at 500 nm, n ≥ 3. The format is binding. How it is done:
Zinc-chelating ability was determined using the PAR colorimetric method. […] The mixed solution was stirred (180 r/min) at 37 °C for 10 min, and then 250 μL PAR (0.2 mmol/L, pH 7.5) was added. After incubation at 37 °C for 3 min, the absorbance at 500 nm was read. […] Zinc-chelating capacity was calculated as follows:(1) Zinc chelating ability mg/g=Cc−Cs× 65.38×10^−3×V /M where, Cc (μmol/L) is the zinc concentration in the reaction solution without samples; Cs is the zinc concentration in reaction solution after the chelating reaction (μmol/L); V is the volume of the reaction solution; M is the mass of the samples (g); and 65.38 is the mol mass of zinc (g/mol).

The next data set relates to Caco-2 cells. In words: Cell viability of Caco-2 cells (MTT method). The format is cell-based.
Data set [2] can be described thus: Thermal stability of zinc solubility (boiling water). Conditions: chelate 1 mg/mL in ultrapure water, zinc sulphate and zinc gluconate 100 μg/mL; boiling water 10, 20, 40, 60 min; zinc in supernatant / total zinc; PAR method; n ≥ 3; Figure 7. Here is the method: SAEAH peptide-zinc chelate solution (1 mg/mL, dispersed in ultrapure water) was incubated in boiling water for 10, 20, 40 and 60 min [37]. After centrifugation at 6000× g for 15 min, the supernatant was collected for zinc content determination.

Experimental for Caco-2 cells: In addition, effects of ZnSO4/zinc gluconate and peptide-zinc chelate on cell viability were measured using the MTT method [38].

Take `O=C(O)CN(CCN(CC(=O)O)CC(=O)O)CC(=O)O` [EDTA]: the Zinc chelating capacity in data set [1] is listed as 57.17 ± 2.63 ^d mg/g. `O=C([O-])[C@H](O)[C@@H](O)[C@H](O)[C@H](O)CO.O=C([O-])[C@H](O)[C@@H](O)[C@H](O)[C@H](O)CO.[Zn+2]` [zinc gluconate]: in the data set with Caco-2 cells, the “Cytotoxicity toward Caco-2 cells” value is “no significant (p > 0.05) cytotoxicity”. Also, the “Zinc solubility stability against incubation at 100 °C (result in words)” value in data set [2] is given as “not reduced significantly”. For the compound “VDLVAEVPRGL [peptide identified in sweet almond expeller amandin hydrolysates]”, the Zinc chelating capacity in data set [1] is reported as 4.33 ± 0.33 ^e mg/g.
